Results on 16 molecules are retold here after paper PMC8011931, “Identification, Structure–Activity Relationship, and Biological Characterization of 2,3,4,5-Tetrahydro-1H-pyrido[4,3-b]indoles as a Novel Class of CFTR Potentiators” (Journal of Medicinal Chemistry, 2020).

The assay deals with F508del-CFTR (Homo sapiens, UniProt P13569, DEL508-508). The assay is described as follows: HS-YFP-based assay for CFTR activity on F508del-CFTR FRT cells rescued at 32 °C for 24 h. Set-up: expressed in transfected cells; key to Emax: fold increase in F508del-CFTR rescue relative to hit 3 (normalized). To be noted: for EC50: F508del-CFTR FRT cells rescued at 32 °C for 24 h, plus forskolin; for EC50 / Emax (FRT F508del-CFTR): mean ± SD (n = 3–6), n.a.: not active (up to 20 μM); for Emax: supplementary csv, same data as Tables 1–3; for Emax (FRT F508del-CFTR): normalized for the activity of analogue 3. Format: cell-based. Here is the method: The chemical library was screened in duplicate on a Fischer rat thyroid (FRT) cell line, stably coexpressing F508del-CFTR and the halide-sensitive yellow fluorescent protein, HS-YFP.[23],[34],[35] To overcome the F508del trafficking defect, cells were initially incubated for 24 h at 32 °C and then acutely treated (15–30 min) with a single compound (5 μM) in combination with forskolin (10 μM). After stimulation, the F508del-CFTR activity in the plasma membrane was calculated by measuring the rate of fluorescence quenching arising from iodide influx.[34] This activity was compared to that of wells containing forskolin alone (negative control) or forskolin plus VX-770 (1 μM, as a positive control) (Figure 2A). Analysis of screening performance with the Z′ method gave a score of 0.6, which can be considered optimal for this type of assay. The activity scores for each compound were then plotted as an ordered distribution (Figure 2B). All compounds whose average activity calculated from the two rounds of screening was greater than 185% with respect to the negative control (i.e., forskolin alone) were considered as primary hits.
Chain of F508del-CFTR (P13569 with tags, fused parts or gaps DEL508-508): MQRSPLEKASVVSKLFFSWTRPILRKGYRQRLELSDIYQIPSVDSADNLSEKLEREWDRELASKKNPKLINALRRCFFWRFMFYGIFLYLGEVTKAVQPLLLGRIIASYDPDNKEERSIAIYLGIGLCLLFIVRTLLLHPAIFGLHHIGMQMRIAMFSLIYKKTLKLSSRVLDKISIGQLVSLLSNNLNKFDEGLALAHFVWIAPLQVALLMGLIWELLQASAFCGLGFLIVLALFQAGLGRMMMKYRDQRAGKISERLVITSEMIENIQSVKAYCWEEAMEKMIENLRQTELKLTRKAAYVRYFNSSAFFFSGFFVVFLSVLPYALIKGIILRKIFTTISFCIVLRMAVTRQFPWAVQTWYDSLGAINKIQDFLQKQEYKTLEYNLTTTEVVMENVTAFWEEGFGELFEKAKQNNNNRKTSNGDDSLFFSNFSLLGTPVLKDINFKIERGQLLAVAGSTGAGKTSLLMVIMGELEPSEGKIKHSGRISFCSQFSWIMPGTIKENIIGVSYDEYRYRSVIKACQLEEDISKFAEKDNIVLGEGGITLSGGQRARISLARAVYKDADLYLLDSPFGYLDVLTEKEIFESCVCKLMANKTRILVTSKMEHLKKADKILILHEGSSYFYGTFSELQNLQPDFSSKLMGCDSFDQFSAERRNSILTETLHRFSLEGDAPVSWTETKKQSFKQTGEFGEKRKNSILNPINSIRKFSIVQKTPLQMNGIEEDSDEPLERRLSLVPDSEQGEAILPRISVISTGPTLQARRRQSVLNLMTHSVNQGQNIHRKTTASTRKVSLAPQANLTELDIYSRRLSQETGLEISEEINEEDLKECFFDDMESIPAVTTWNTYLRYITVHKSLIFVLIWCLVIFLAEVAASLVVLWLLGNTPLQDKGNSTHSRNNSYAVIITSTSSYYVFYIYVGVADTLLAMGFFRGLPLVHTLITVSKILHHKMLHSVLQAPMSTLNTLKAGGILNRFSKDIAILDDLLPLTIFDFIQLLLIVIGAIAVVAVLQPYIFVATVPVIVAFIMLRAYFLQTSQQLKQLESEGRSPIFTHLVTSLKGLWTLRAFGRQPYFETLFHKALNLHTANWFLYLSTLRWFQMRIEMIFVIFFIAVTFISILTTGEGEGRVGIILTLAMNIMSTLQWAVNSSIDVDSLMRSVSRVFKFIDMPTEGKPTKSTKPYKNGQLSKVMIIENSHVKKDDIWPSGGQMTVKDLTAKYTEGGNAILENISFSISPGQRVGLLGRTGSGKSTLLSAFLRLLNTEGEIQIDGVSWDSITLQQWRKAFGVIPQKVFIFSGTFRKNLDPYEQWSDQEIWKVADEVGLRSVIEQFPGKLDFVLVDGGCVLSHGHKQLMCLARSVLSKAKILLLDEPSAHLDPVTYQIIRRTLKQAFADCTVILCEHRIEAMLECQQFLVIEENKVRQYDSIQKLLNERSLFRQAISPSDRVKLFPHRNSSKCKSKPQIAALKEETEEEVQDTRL
The primary hits were confirmed by testing them at different concentrations, in order to extrapolate the dose–response relationship. First, we focused on the F508del mutant. The compounds were tested in the low micromolar range, in the presence of forskolin (10 μM), on F508del-CFTR FRT cells following rescue of the trafficking defect by low-temperature incubation, as done for the primary screening. The most interesting hits were subsequently tested for their ability to overcome the more severe gating defect of pure class III mutant using FRT cells stably expressing G551D-CFTR (Figure 3B).
The role of the heteroaryl group (A) acylating the position 2 of the tetrahydro-γ-carboline was initially explored by modifying the substituent on the pyrazolyl residue and replacing the pyrazole with other rings, while keeping the 8-methoxy carboline moiety unmodified. The activity of each compound is described in terms of normalized maximal efficacy (Emax), the maximum fold increase in the rescue of F508del-CFTR activity with respect to hit 3, and potency (EC50), the concentration producing half-maximal efficacy.
FRT cells stably expressing mutant F508del-CFTR or G551D-CFTR and the halide-sensitive yellow fluorescent protein (HS-YFP) YFP-H148Q/I152L and CFBE41o-cells stably expressing F508del-CFTR and HS-YFP were generated as previously described.[21],[57] FRT cells were cultured using the Coon’s modification of Ham’s F12 medium, while CFBE41o-cells were cultured in the modified Eagle’s medium. Media were supplemented with 10% fetal calf serum, 2 mM L-glutamine, 100 U/mL of penicillin, and […] of streptomycin. For functional assays of CFTR activity based on the HS-YFP assays, CFBE41o- or FRT cells were plated (50,000 cells/well) on clear-bottom 96-well black microplates (Corning Life Sciences, Acton, MA). The following day, cells were assayed. In the case of FRT cells expressing F508del-CFTR, plates were kept at 32 °C (or treated with correctors at 37 °C where indicated) for an additional 24 h to rescue the mutant trafficking defect, before assays.
Prior assay, cells were washed with phosphate-buffered saline (PBS) containing (in mM) 137 NaCl, 2.7 KCl, 8.1 Na2HPO4, 1.5 KH2PO4, 1 CaCl2, and 0.5 MgCl2. Cells were then incubated for 25 min with 60 μL of PBS plus forskolin (20 μM) and test compounds (at the desired concentration) to stimulate mutant CFTR. Cells were then transferred to microplate readers (FluoStar Optima; BMG Labtech, Offenburg, Germany) for CFTR activity determination. The plate readers were equipped with high-quality excitation (HQ500/20X: 500 ± 10 nm) and emission (HQ535/30M: 535 ± 15 nm) filters for YFP (Chroma Technology). […]

One may read the EC50 as the concentration that produces a half-maximal response. Take `Cc1cccc2[nH]c3c(c12)CN(C(=O)c1cc(C(F)(F)F)[nH]n1)CC3` [Compound 15, (9-Methyl-1,3,4,5-tetrahydro-2H-pyrido[4,3-b]indol-2-yl)-(5-(trifluoromethyl)-1H-pyrazol-3-yl)methanone]: the EC50 was 0.48 ± 0.12 µM and the Emax was 0.83 ± 0.09.
As to `Cc1ccc2c3c([nH]c2c1)CCN(C(=O)c1cc(C(F)(F)F)[nH]n1)C3` [Compound 16, (7-Methyl-1,3,4,5-tetrahydro-2H-pyrido[4,3-b]indol-2-yl)-(5-(trifluoromethyl)-1H-pyrazol-3-yl)methanone], the EC50 came out at 0.2 ± 0.06 µM and the Emax came out at 0.22 ± 0.04.
`Cc1cccc2c3c([nH]c12)CCN(C(=O)c1cc(C(F)(F)F)[nH]n1)C3` [Compound 17, (6-Methyl-1,3,4,5-tetrahydro-2H-pyrido[4,3-b]indol-2-yl)-(5-(trifluoromethyl)-1H-pyrazol-3-yl)methanone]: the EC50 worked out at 1.14 ± 0.13 µM and the Emax came out at 1.0 ± 0.08.
On to `CC(C)c1ccc2[nH]c3c(c2c1)CN(C(=O)c1cc(C(F)(F)F)[nH]n1)CC3` [Compound 18, (8-Isopropyl-1,3,4,5-tetrahydro-2H-pyrido[4,3-b]indol-2-yl)-(5-(trifluoromethyl)-1H-pyrazol-3-yl)methanone], for which the half-maximal effective concentration (EC50) is 1.4 ± 0.9 µM and the Emax is listed as 0.69 ± 0.09.
For `O=C(c1cc(C(F)(F)F)[nH]n1)N1CCc2[nH]c3ccc(F)cc3c2C1` [Compound 19, (8-Fluoro-1,3,4,5-tetrahydro-2H-pyrido[4,3-b]indol-2-yl)(5-(trifluoromethyl)-1H-pyrazol-3-yl)methanone], the EC50 worked out at 0.48 ± 0.05 µM and the Emax worked out at 0.97 ± 0.11.
`O=C(c1cc(C(F)(F)F)[nH]n1)N1CCc2[nH]c3ccc(C(F)(F)F)cc3c2C1` [Compound 21, (8-(Trifluoromethyl)-1,3,4,5-tetrahydro-2H-pyrido[4,3-b]indol-2-yl)-(5-(trifluoromethyl)-1H-pyrazol-3-yl)methanone]: the 50% effective concentration (EC50) amounted to 0.44 ± 0.06 µM and the Emax was determined as 0.95 ± 0.04.
As to `O=C(c1cc(C(F)(F)F)[nH]n1)N1CCc2[nH]c3ccc(OC(F)(F)F)cc3c2C1` [Compound 22, (8-(Trifluoromethoxy)-1,3,4,5-tetrahydro-2H-pyrido[4,3-b]indol-2-yl)-(5-(trifluoromethyl)-1H-pyrazol-3-yl)methanone], the EC50 stood at 0.16 ± 0.03 µM, the “Emax (FRT F508del-CFTR)” value stood at 0.89 ± 0.03 and the Emax stood at 0.89 ± 0.03.
For the molecule `N#Cc1ccc2[nH]c3c(c2c1)CN(C(=O)c1cc(C(F)(F)F)[nH]n1)CC3` [Compound 23, 2-(5-(Trifluoromethyl)-1H-pyrazole-3-carbonyl)-2,3,4,5-tetrahydro-1H-pyrido[4,3-b]indole-8-carbonitrile], the EC50 was 1.9 ± 0.2 µM and the Emax came to 0.75 ± 0.11.
Consider `CS(=O)(=O)c1ccc2[nH]c3c(c2c1)CN(C(=O)c1cc(C(F)(F)F)[nH]n1)CC3` [Compound 24, (8-(Methylsulfonyl)-1,3,4,5-tetrahydro-2H-pyrido[4,3-b]indol-2-yl)-(5-(trifluoromethyl)-1H-pyrazol-3-yl)methanone], for which the EC50 amounted to 10.5 ± 2.2 µM and the Emax is 0.28 ± 0.04.
For the molecule `Cc1cc(F)c2[nH]c3c(c2c1)CN(C(=O)c1cc(C(F)(F)F)[nH]n1)CC3` [Compound 26, (6-Fluoro-8-methyl-1,3,4,5-tetrahydro-2H-pyrido[4,3-b]indol-2-yl)-(5-(trifluoromethyl)-1H-pyrazol-3-yl)methanone], the EC50 worked out at 0.23 ± 0.08 µM and the Emax amounted to 0.70 ± 0.02.
On to `O=C(c1cc(C(F)(F)F)[nH]n1)N1CCc2[nH]c3c(F)cc(F)cc3c2C1` [Compound 27, (6,8-Difluoro-1,3,4,5-tetrahydro-2H-pyrido[4,3-b]indol-2-yl)-(5-(trifluoromethyl)-1H-pyrazol-3-yl)methanone], for which the EC50 is 0.15 ± 0.07 µM and the Emax is listed as 0.66 ± 0.12.
Turning to `O=C(c1cc(C(F)(F)F)[nH]n1)N1CCc2[nH]c3c(F)cc(C(F)(F)F)cc3c2C1` [Compound 28, (6-Fluoro-8-trifluoromethyl-1,3,4,5-tetrahydro-2H-pyrido[4,3-b]indol-2-yl)-(5-(trifluoromethyl)-1H-pyrazol-3-yl)methanone], the EC50 turned out to be 0.57 ± 0.14 µM and the Emax turned out to be 0.94 ± 0.13. In addition, under “EC50, F508del-CFTR FRT cells”, the “fold drop in potency with respect to 20” value was found to be 6 fold.
As to `Cc1ccc(F)c2c3c([nH]c12)CCN(C(=O)c1cc(C(F)(F)F)[nH]n1)C3` [Compound 31, (9-Fluoro-6-methyl-1,3,4,5-tetrahydro-2H-pyrido[4,3-b]indol-2-yl)(5-(trifluoromethyl)-1H-pyrazol-3-yl)methanone], the concentration giving a half-maximal response (EC50) was found to be 0.94 ± 0.25 µM and the Emax was determined as 0.65 ± 0.08. Further, the “fold decrease (drop) in potency with respect to 30” value (EC50, F508del-CFTR FRT cells) is given as “more than 15 fold”.
As for `Cc1ccc(F)c2[nH]c3c(c12)CN(C(=O)c1cc(C(F)(F)F)[nH]n1)C(C)(C)C3` [Compound 34, (6-Fluoro-3,3,9-trimethyl-1,3,4,5-tetrahydro-2H-pyrido[4,3-b]indol-2-yl)-(5-(trifluoromethyl)-1H-pyrazol-3-yl)methanone], the EC50 was 1.91 ± 0.26 µM, the “Emax (FRT F508del-CFTR)” value is 0.79 ± 0.13 and the Emax worked out at 0.79 ± 0.13.
`Cc1ccc(F)c2[nH]c3c(c12)CCN(C(=O)c1cc(C(F)(F)F)[nH]n1)CC3` [Compound 38, (7-Fluoro-10-methyl-1,4,5,6-tetrahydroazepino[4,5-b]indol-3(2H)-yl)-(5-(trifluoromethyl)-1H-pyrazol-3-yl)methanone]: the 50% effective concentration (EC50) was found to be 2.3 ± 0.3 µM and the Emax is on record as 0.93 ± 0.16. Moreover, the “fold decrease (drop) in potency with respect to 30” value (EC50, F508del-CFTR FRT cells) turned out to be 38 fold.
Consider `Cc1ccc(F)c2[nH]c3c(c12)CN(C(=O)c1cc(C(F)(F)F)[nH]n1)[C@@H](C)C3` [Compound 40, (S)-(6-Fluoro-3,9-dimethyl-1,3,4,5-tetrahydro-2H-pyrido[4,3-b]indol-2-yl)-(5-(trifluoromethyl)-1H-pyrazol-3-yl)methanone], for which the EC50 turned out to be 1.1 ± 0.2 µM, the “Emax (FRT F508del-CFTR)” value was 1.31 ± 0.18 and the Emax came out at 1.31 ± 0.18.
